pIC50: −log10 of the molar value. “Also recorded” adds a separate entry of the source.
What was measured:
[1] = Solubility of NPS A in water and organic solvents; assay type: physicochemical
[2] = tested on: h9c2 cells; test: MTT toxicity assay in h9c2 myocardial cells; assay type: cell-based; conditions: 24 hours treatment
Description: In h9c2 cells, myocardial cells, the toxicity of NPS A extracted from Neopetrosia sp. Of Example 1 was confirmed.
The h9c2 cells were dispensed at 2×10^4 cells/well in a 96-well tissue culture plate and cultured for 16 hours. Thereafter, various concentrations of NPS A were treated and cultured for additional 24 hours.
After the culture, a quantitative colorimetric assay using MTT(3-(4,5-dimethylthiazol-2-yl)-2,5-diphenyltetrazolium bromide (Sigma-Aldrich, St. Louis, Mo., USA) was performed to confirm the survival rate of the cells.
The degree of reduction of MTT to intracellular formazan was confirmed by measuring the optical density at 570 nm using a microplate reader (Molecular device, Sunnyvale, Calif., USA).

[3] = tested on: h9c2 cells; test: Oxygen consumption rate (OCR) / ECAR measurement with XF24 analyzer; assay type: cell-based
Description: For this, the basal oxygen consumption rate (OCR), respiratory related to ATP (adenosine triphosphate), proton leak, maximal capacity and mitochondrial OCR were confirmed.
First, to measure OCR, h9c2 cells were dispensed at 2×10^4 cells/well in an XF24 cell plate (Seahorse Bioscience, Billerica, Mass., USA) and cultured for 16 hours. Thereafter, cells were dispensed with various concentrations of NPS A and cultured for another one hour. After 1 hour, the medium was replaced with 500 μL of XF assay medium-modified DMEM (XF Assay Medium-modified DMEM, Seahorse Bioscience, Billerica, Mass., USA) and incubated for 1 hour in a incubator at 37° C. in absence of CO2.
OCR was measured using an XF24 analyzer (Seahorse Bioscience, Billerica, Mass., USA) and XF24 software. After OCR measurement, the XF 24 assay results were normalized to the cell number and the number of cells in each well was counted by a Luna™ automated cell counter (Logos, Annandale, Va., USA).

[4] = tested on: h9c2 cells; test: Mitochondrial ATP level (Mitochondrial ToxGlo assay); assay type: cell-based; conditions: h9c2 cells, 0, 3 or 10 μM NPS A for 1 hour
Description: Furthermore, mitochondrial ATP levels were measured using the Mitochondrial T ToxGlo™ assay (Promega, Madison, Wis., USA) according to the manufacturer's instructions.
Briefly, h9c2 cells were dispensed at 2×10^6 cells/well in a 60 mm tissue culture plate and cultured for 16 hours and treated with 0, 3, or 10 μM NPS A for 1 hour. The treated cells were all collected and resuspended by pipetting until the cells were uniformly dispersed. The resuspended h9c2 cells were dispensed at 2×10^4 cells/well in a 96-well plate and the plates were centrifuged at 200×g for 10 minutes to remove the medium. Thereafter, 50 μL of fresh medium (except for glucose, containing 10 mM galactose) was added.
The cells were incubated in a humidified incubator at 37° C. supplied with CO2 for 90 minutes. Then, the assay solution (100 μL) was added to the plate and reacted at room temperature for 30 minutes. Luminescence was measured using a luminometer (Molecular Device, Sunnyvale, Calif., USA).

[5] = tested on: h9c2 cells; test: Glycolysis activity, capacity and reserve with XF24 analyzer; assay type: cell-based; conditions: 10 μM NPS A compared to 20 μM or 30 μM, 1 hour
Description: After treating h9c2 cells with NPS A, the glycolysis activity, the glycolysis capacity and the glycolysis reserve were confirmed using an XF24 analyzer.
h9c2 cells were treated sequentially with 10 mM glucose (G), 1 μM oligomycin (O) and 10 mM 2-dioxyglucose (2DG), treated with NPS A for 1 hour and then measured with an XF24 analyzer.

[6] = tested on: ischemic reperfusion heart model; test: Ischemic reperfusion heart model (Langendorff perfused rat heart); assay type: in vivo, SD rats
Description: 8-week-old male SD rats (200-250 g) were anesthetized by intraperitoneal injection of sodium pentobarbital (100 mg/kg). The chest cavity was exposed and a glass cannula was inserted into the aorta. The heart was quickly cut into thoracotomy, perfused with a normal Tyrode's solution in a Langendorff system and equilibrated with 95% O2 and 5% CO2 at 37° C. for 10 min to remove all blood. The heart of the rat was extirpated and the experiment was performed using a non-circulating system. First, ischemic reperfusion (I/R) model and drug treatment group (NPS A treatment; NPS A 10 μM treatment after ischemia reperfusion) were performed and hypoxic solution was flowed for 30 minutes. After 30 minutes, the normal tyrode solution and NPS A were treated together to restore cardiac function and confirm changes in electrocardiogram. […] After global ischemia (initiating reperfusion), 10 μM of NPS A was administered for 30 minutes.

[7] = tested on: mitochondria extracted from the heart of rats; test: Oxidative phosphorylation in mitochondria extracted from NPS A-treated rat heart; conditions: mitochondria of I/R rat heart, NPS A treatment
[8] = tested on: candidate kinases of the first type (cardiovascular diseases); test: Kinase screening, set of kinases related to cardiovascular diseases; assay type: biochemical
Excerpt: (§1) First, kinases regulated by NPS A were screened using a set of kinases related to cardiovascular diseases and diabetes.

[9] = target: GSK-3α (Glycogen synthase kinase-3α) (Homo sapiens, UniProt P49840); test: Kinase screening and IC50 determination, GSK-3α; assay type: biochemical
Chain of GSK-3α (Glycogen synthase kinase-3α) (P49840 whole entry, species assumed): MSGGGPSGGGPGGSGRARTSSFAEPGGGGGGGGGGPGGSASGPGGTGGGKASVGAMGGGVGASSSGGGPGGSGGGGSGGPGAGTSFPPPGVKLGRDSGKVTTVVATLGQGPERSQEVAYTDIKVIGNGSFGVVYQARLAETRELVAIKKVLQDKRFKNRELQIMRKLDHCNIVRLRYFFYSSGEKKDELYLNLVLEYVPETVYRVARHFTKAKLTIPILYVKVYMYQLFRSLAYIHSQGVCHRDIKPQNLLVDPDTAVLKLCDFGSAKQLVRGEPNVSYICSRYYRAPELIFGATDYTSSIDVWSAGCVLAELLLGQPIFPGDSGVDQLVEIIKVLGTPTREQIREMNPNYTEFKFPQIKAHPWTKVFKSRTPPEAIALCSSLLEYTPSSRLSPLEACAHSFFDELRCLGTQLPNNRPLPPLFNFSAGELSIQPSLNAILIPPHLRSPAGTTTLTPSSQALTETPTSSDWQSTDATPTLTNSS
Description: as §1
(§2) The activity of GSK-3 alpha, GSK-3 beta and mTOR kinase regulated by NPS A was measured to determine the half maximal inhibition dosage.

[10] = target: GSK-3β (Homo sapiens, UniProt P49841); test: Kinase screening and IC50 determination, GSK-3β; assay type: biochemical
Chain of GSK-3β (P49841 whole entry, species assumed): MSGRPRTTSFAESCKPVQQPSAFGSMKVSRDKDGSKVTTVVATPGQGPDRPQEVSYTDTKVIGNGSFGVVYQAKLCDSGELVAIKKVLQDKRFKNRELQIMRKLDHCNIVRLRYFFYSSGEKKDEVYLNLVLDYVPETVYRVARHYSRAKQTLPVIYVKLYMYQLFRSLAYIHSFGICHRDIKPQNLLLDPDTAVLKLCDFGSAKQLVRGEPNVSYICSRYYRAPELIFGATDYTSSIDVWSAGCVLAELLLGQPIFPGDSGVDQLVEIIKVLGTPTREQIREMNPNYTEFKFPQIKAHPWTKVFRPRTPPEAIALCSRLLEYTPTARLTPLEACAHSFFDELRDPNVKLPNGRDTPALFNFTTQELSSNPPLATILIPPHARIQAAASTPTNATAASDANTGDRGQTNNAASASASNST
Description: as §1, §2

[11] = target: mTOR (mammalian target of rapamycin) (Homo sapiens, UniProt P42345); test: Kinase screening and dose-dependence, mTOR; assay type: biochemical
Description: as §1, §2

[12] = kinase screening, kinases related with diabetes

solubility in other organic solvents ([1]; other organic solvents): not well soluble
solubility in pyridine and methanol ([1]; pyridine and methanol): dissolves in pyridine and methanol
solubility in water ([1]; water): dissolves in water
pIC50 [9]: 3.85
kinase screening result, GSK-3α [9, 12]: inhibited
pIC50 [10]: 3.91
kinase screening result, GSK-3β [10, 12]: inhibited
mTOR activity according to doses of NPS A ([11]; different doses of NPS A): no change
kinase screening result, mTOR [11, 12]: inhibited
SMILES: O=C([O-])c1ccc[n+](C2OC(COC(=O)c3ccc(O)cc3)C(O)C2O)c1 (centres unmarked) [NPS A, Neopetroside A]
concentration up to which not toxic to the myocardial cells (MTT survival) [2]: ≤ 300 µM
OCR/ECAR ratio [3]: increased
basal ECAR (extracellular acidification rate) [3]: increased
basal OCR ([3]; 1 hour treatment): up-regulated; also recorded: increased
mitochondrial OCR ([3]; 1 hour treatment): up-regulated
oxidative phosphorylation ([3]; 1 hour treatment): up-regulated
respiration associated with ATP ([3]; 1 hour treatment): up-regulated
ATP synthesis [4]: stimulates; also recorded: up-regulated
intracellular ATP levels [4]: increases
glycolysis activity [5]: greatest
glycolysis capacity [5]: greatest
cardiac rhythm ([6]; 10 μM NPS A during reperfusion): recovered
size of the heart infarction ([6]; 10 μM NPS A during reperfusion): significantly reduced
left ventricular pressure (LV pressure) ([6]; 10 μM NPS A for 30 minutes during reperfusion after 30 minutes global ischemia): effectively restored
respiratory control ratio (RCP) [7]: recovered
three-stage respiratory depression in mitochondria (OCR) [7]: significantly protected
regulation of candidate kinases of the first type [8]: did not regulate most

Source: patent US10927101B2, “Neopetrosides A and B, and synthesis method thereof” (INJE UNIVERSITY INDUSTRY-ACADEMIC COOPERATION FOUNDATION, priority 2016, dated 2021)
